Laboratory results published in patent US20210317401A1, “USE OF CYSTEINE OR SALT THEREOF FOR CRYOPROTECTING LACTIC ACID BACTERIA” (CJ CHEILJEDANG CORPORATION, priority 2018, published 2021).

Tests used:
[1] = system: Lactobacillus plantarum CJLP133; experiment: High-concentration culturing of lactic acid bacteria, O.D. value; assay type: cell-based; conditions: 0.1% in MRS liquid medium; from O.D. results
Method: (§1) A Lactobacillus plantarum CJLP133 strain was cultured at 37° C. for 11 hours in an MRS liquid medium (Difco, USA) containing 0.1% of cysteine monohydrochloride.
(§2) A Lactobacillus plantarum CJLP133 strain was cultured at 37° C. for 11 hours in an MRS liquid medium (Difco, USA) not containing 0.1% of cysteine monohydrochloride.
The evaluation of the lactic acid bacteria culturing was measured by diluting a lactic acid bacteria culture solution 20 times at 600 nm using a spectrophotometer (NanoPhotometer, IMPLEN) according to the method for measuring an optical density (O.D.) value of Korean Food Additives Codex.

[2] = system: Lactobacillus plantarum CJLP133; experiment: High-concentration culturing of lactic acid bacteria, number of live bacteria; assay type: cell-based; conditions: 0.1% in MRS liquid medium; from live bacteria counts
Method: as §1, §2
A lactic acid bacteria culture solution was diluted with sterilized physiological water and smeared so that 30 to 300 colonies were formed in an MRS agar plate medium, and then cultured at 37° C. for 24 hours. The number of colonies observed after the culturing was counted and calculated as the number of live bacteria per mL.

Q: Which “ability to accelerate the growth of lactic acid bacteria (in words)” value [1] does the source give for `Cl.N[C@@H](CS)C(=O)O` [cysteine monohydrochloride] here?
A: excellent

Q: And the “ability to accelerate the growth of lactic acid bacteria (in words)” value [2]?
A: excellent
